Earlier results, collected in patent US20070016968A1, “Treatment of pain through expression of opioid receptors” (priority 2003, published 2007).

Legend:
mice of the CXBX strain = details: CXBX strain mice (Rossi et al 1996)
[1] = tested on: MOR-1 knockout mice (exon-1); details: disruption in exon-1 (Schuller et al 1999)
mice = details: antinociception tests on mice
μ-receptor = details: in vivo studies (Ling et al)
μ1-site = details: Ling et al 1984, 1985
cloned DOR-1 receptor = cloned DOR-1 receptor (Mus musculus, UniProt P32300); details: mouse recombinant receptor
cloned DOR-1 receptor, sequence (P32300 whole entry): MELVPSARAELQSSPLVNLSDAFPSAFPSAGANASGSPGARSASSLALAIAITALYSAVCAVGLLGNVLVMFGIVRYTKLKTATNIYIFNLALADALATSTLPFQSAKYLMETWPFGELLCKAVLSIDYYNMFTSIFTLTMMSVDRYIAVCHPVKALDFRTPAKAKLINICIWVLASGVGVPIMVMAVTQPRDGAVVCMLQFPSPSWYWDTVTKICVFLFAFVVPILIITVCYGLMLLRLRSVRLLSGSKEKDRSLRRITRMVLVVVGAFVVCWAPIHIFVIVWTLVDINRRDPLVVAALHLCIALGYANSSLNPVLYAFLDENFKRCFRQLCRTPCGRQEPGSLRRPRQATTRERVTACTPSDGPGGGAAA

## CC(=O)O[C@H]1C=C[C@H]2[C@H]3Cc4ccc(O)c5c4[C@@]2(CCN3C)[C@H]1O5 [6-acetyl morphine]
Mice of the CXBX strain
  antinociceptive activity: potently antinociceptive

## CC(=O)Oc1ccc2c3c1O[C@H]1[C@@H](OC(C)=O)C=C[C@H]4[C@@H](C2)N(C)CC[C@@]341 [heroin]
[1]
  antinociception: still produce antinociception
Mice of the CXBX strain
  antinociceptive activity: potently antinociceptive

## CN1CC[C@]23c4c5ccc(O)c4O[C@H]2[C@@H](O[C@@H]2O[C@H](C(=O)O)[C@@H](O)[C@H](O)[C@H]2O)C=C[C@H]3[C@H]1C5 [morphine-6b-glucuronide]
Mice of the CXBX strain
  antinociceptive activity: potently antinociceptive

## CN1CC[C@]23c4c5ccc(O)c4O[C@H]2[C@@H](O)C=C[C@H]3[C@H]1C5 [morphine]
mice
  cross tolerance with morphine-6b-glucuronide, heroin or 6-acetyl morphine: does not exhibit cross tolerance
Mice of the CXBX strain
  antinociceptive activity: poor antinociceptive agent

## C=CCN1CC[C@]23c4c5ccc(O)c4O[C@H]2/C(=N\N)CC[C@@]3(O)[C@H]1C5 [naloxazone]
μ-receptor
  block of morphine-induced antinociception: selectively blocked
  block of morphine-induced respiratory depression: did not block
  block of the induction of morphine dependence: did not block
μ1-site
  effect on binding of radioligands to the μ1-site: abolish the binding of radioligands

## C=CCN1CC[C@]23c4c5ccc(O)c4O[C@H]2/C(=N/N=C2\CC[C@@]4(O)[C@H]6Cc7ccc(O)c8c7[C@@]4(CCN6CC=C)[C@H]2O8)CC[C@@]3(O)[C@H]1C5 [naloxonazine]
μ1-site
  effect on binding of radioligands to the μ1-site: abolish the binding of radioligands

## Oc1ccc2c3c1O[C@H]1c4oc5ccccc5c4C[C@@]4(O)[C@@H](C2)N(CC2CC2)CC[C@]314 [naltriben]
Cloned DOR-1 receptor
  displacement of [3H]-diprenorphine binding, compared with BNTX: more highly displaced
